Source: patent publication US20200278355A1, “CONJUGATED PROTEINS AND USES THEREOF” (THE SCRIPPS RESEARCH INSTITUTE, priority 2017, published 2020)

Target: T1, GSTO1 (Homo sapiens, UniProt P78417)
T1 construct: Isotopically labeled H460 cell lines were generated as described above; endogenous in cells; host or cells: H460 (SILAC-labelled)
Test: ABPP-SILAC BPK-29yne competition in H460 cells: GSTO1
Assay type: cell-based
Details: 20 μM
Experimental: Isotopically labeled H460 cell lines were generated as described above. Light and heavy cells were treated with compounds (20 μM) or DMSO, respectively, for 3 h, followed by labeling with the BPK-29yne (5 μM) for 30 min. Cells were washed once ice-cold PBS and lysed in 1% Triton 100-X dissolved in PBS with protease inhibitors (Sigma) by sonication. Lysate was adjusted to 1.5 mg ml^−1 in 500 μL. Samples were conjugated by CuAAC to Biotin-PEG4-azide (5 μL of 10 mM stocks in DMSO, final concentration=100 μM). CuAAC “click” mix contained TCEP, TBTA ligand and CuSO4 as detailed for isoTOP-ABPP sample preparation. Samples were further processed as detailed in: isoTOP-ABPP streptavidin enrichment and isoTOP-ABPP trypsin TEV digestion with the following exception: after overnight incubation at 37° C. with trypsin, tryptic digests were separated from the beads with Micro Bio-Spin columns (Bio-Rad) by centrifugation (1,000×g, 1 min). Beads were rinsed once with water (200 μL) and combined with tryptic digests. […]
The MS2 spectra data were extracted and searched using RAW Convertor and ProLuCID algorithm as described in isoTOP-ABPP peptide and protein quantification. […] Ratios of heavy/light (DMSO/test compound) peaks were calculated using in-house CIMAGE software. […] The mean R values and standard deviation for multiple biological experiments were calculated from the average ratios from each replicate. […]

T1 sequence (P78417 whole entry): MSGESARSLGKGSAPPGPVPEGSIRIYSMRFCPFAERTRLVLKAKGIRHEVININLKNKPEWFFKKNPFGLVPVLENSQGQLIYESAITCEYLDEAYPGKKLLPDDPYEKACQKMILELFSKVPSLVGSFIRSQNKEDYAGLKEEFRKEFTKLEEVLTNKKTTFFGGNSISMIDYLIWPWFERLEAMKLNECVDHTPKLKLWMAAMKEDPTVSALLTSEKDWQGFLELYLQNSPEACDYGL

Question: For `O=C(c1ccc(N2CCOCC2)cc1)N1CCCC(N(Cc2ccccc2)C(=O)CCl)CC1` (stereo not shown) [BPK-29, N-benzyl-2-chloro-N-(1-(4-morpholinobenzoyl)azepan-4-yl)acetamide], which “BPK-29-competed BPK-29yne analysis” value is on record?
Answer: Yes (Competed defined as showing R value ≥ 2.5 at 20 μM of test compound)
